tested on: hypoxia-inducible endogenous VEGF expression in HeLa cells; experiment: Hypoxia-inducible endogenous VEGF expression, VEGF ELISA of conditioned media (dose-response EC50); type: cell-based; conditions: HeLa cells under hypoxic conditions
In short: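 Secreted VEGF was quantified by ELISA against a per-assay standard curve after HeLa cells spent 24-48 h in 1% O2, 5% CO2, N2 balance with or without compound. Across a series of, e.g., seven concentrations, percentage inhibition (max 100%, min 0%) gave EC50 and CC50 values.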

Row | SMILES | EC50 [nM]
1 | O=[N+](O)c1ccc(C2NCCc3c2[nH]c2ccc(Cl)cc32)cc1 (stereo not shown) [Compound 185] | 200 to 1000
2 | Clc1ccc2[nH]c3c(c2c1)CCN(Cc1ccco1)C3c1ccco1 (stereo not shown) [Compound 265] | > 1000

same assay, conditions: Homo sapiens, HeLa cells under hypoxic conditions

Row | SMILES | EC50 [nM]
3 | CCOC(=O)N1CCc2c([nH]c3ccc(Cl)cc23)C1CC (stereo not shown) [Compound 240] | > 1000
4 | COc1ccc(C2c3[nH]c4ccc(C)cc4c3CCN2c2cnccn2)cc1 (stereo not shown) [Compound 343] | > 1000
5 | CCOC(=O)N1CCc2c([nH]c3ccc(Cl)cc23)C1c1ccc(Cl)cc1Cl (stereo not shown) [Compound 141] | 40 to 200
6 | CC(C)COC(=O)N1CCc2c([nH]c3ccc(Br)cc23)C1c1ccccc1 (stereo not shown) [Compound 67] | 8 to 40
7 | O=C(O)C1Cc2c([nH]c3ccccc23)C(c2ccccc2)N1 (stereo not shown) [Compound 314] | > 1000
8 | COc1ccc(NC(=O)N2CCc3c([nH]c4ccc(Cl)cc34)C2c2ccc(OC)cc2)cc1 (stereo not shown) [Compound 186] | 200 to 1000
9 | Brc1ccc(C2NCCc3c2[nH]c2ccc(Br)cc32)cc1 (stereo not shown) [Compound 157] | 40 to 200
10 | Fc1ccc(F)c(C2NCCc3c2[nH]c2ccc(Br)cc32)c1 (stereo not shown) [Compound 178] | 200 to 1000
11 | COCCOCC(=O)N1CCc2c([nH]c3ccc(Br)cc23)C1c1ccc(Br)cc1 (stereo not shown) [Compound 241] | > 1000
12 | CC(C)NC(=O)N1CCc2c([nH]c3ccc(Br)cc23)C1c1cccc(Cl)c1 (stereo not shown) [Compound 199] | 200 to 1000
13 | Fc1ccc2[nH]c3c(c2c1)CCNC3c1ccc(Cl)cc1Cl (stereo not shown) [Compound 257] | > 1000
14 | COc1ccc(C2c3[nH]c4ccc(Cl)cc4c3CCN2C(=S)SC)cc1 (stereo not shown) [Compound 384] | < 8
15 | COc1ccc(C2c3[nH]c4ccc(Cl)cc4c3CCN2C(=O)c2ccc(F)c(F)c2F)cc1 (stereo not shown) [Compound 373] | 40 to 200
16 | COc1ccc(C2c3[nH]c4ccc(Cl)cc4c3CCN2S(=O)(=O)c2ccccc2Cl)cc1 (stereo not shown) [Compound 372] | > 1000
17 | COC(=O)N1CCc2c([nH]c3ccc(Cl)cc23)C1c1cc(F)ccc1F (stereo not shown) [Compound 154] | 40 to 200
18 | Clc1ccc2[nH]c3c(c2c1)CNCC3c1ccccc1 (stereo not shown) [Compound 248] | > 1000
19 | CC(C)c1ccc(C2NCCc3c2[nH]c2ccc(Br)cc32)cc1 (stereo not shown) [Compound 112] | 8 to 40
20 | COc1ccc(C2NCCc3c2[nH]c2ccc(Br)cc32)cc1 (stereo not shown) [Compound 214] | 200 to 1000
21 | COCC(=O)N1CCc2c([nH]c3ccc(Cl)cc23)C1c1ccc(OC)cc1 (stereo not shown) [Compound 376] | 200 to 1000
22 | COc1ccc(C2c3[nH]c4ccc(C)cc4c3CCN2c2ncccn2)cc1 (stereo not shown) [Compound 342] | 40 to 200
23 | COc1ccc(C2c3[nH]c4ccc(Br)cc4c3CCN2c2ncccn2)cc1 (stereo not shown) [Compound 329] | > 1000
24 | CCNC(=O)N1CCc2c([nH]c3ccccc23)C1c1ccc(OC)cc1 (stereo not shown) [Compound 307] | > 1000
25 | CC(=O)N1CCc2c([nH]c3ccc(Br)cc23)C1c1cccc(Cl)c1 (stereo not shown) [Compound 98] | 8 to 40

Row | SMILES | EC50 [nM]
26 | COc1ccc(C2c3[nH]c4ccccc4c3CCN2C(=S)Nc2cccc(F)c2)cc1 (stereo not shown) [Compound 308] | > 1000
27 | CCCOC(=O)N1CCc2c([nH]c3ccc(Cl)cc23)C1c1ccc(C(C)C)cc1 (stereo not shown) [Compound 13] | < 8
28 | CC(C)NC(=S)N1CCc2c([nH]c3ccc(Br)cc23)C1c1ccccc1 (stereo not shown) [Compound 158] | 40 to 200
29 | CCOC(=O)N1CCc2c([nH]c3ccc(Cl)cc23)C1c1ccc(OCc2ccccc2)cc1 (stereo not shown) [Compound 100] | 8 to 40
30 | CCNC(=S)N1CCc2c([nH]c3ccc(Cl)cc23)C1c1ccc(OC)cc1 (stereo not shown) [Compound 146] | 40 to 200
31 | Clc1ccc2[nH]c3c(c2c1)CCN(Cc1ccco1)C3C1CCCCC1 (stereo not shown) [Compound 228] | 200 to 1000
32 | C=CCOc1ccc(C2c3[nH]c4ccc(Cl)cc4c3CCN2C(=O)OCC)cc1 (stereo not shown) [Compound 396] | < 8
33 | Clc1ccc2[nH]c3c(c2c1)CCNC3c1ccc(Br)cc1 (stereo not shown) [Compound 171] | 200 to 1000
34 | O=C(Oc1ccccc1)N1CCc2c([nH]c3ccc(Cl)cc23)C1c1ccccc1 (stereo not shown) [Compound 121] | 8 to 40
35 | CCCOC(=O)N1CCc2c([nH]c3ccc(Cl)cc23)C1c1cccc(Cl)c1 (stereo not shown) [Compound 72] | 8 to 40
36 | CCOC(=O)N1CCc2c([nH]c3ccc(Cl)cc23)C1c1cccc(Cl)c1 (stereo not shown) [Compound 20] | < 8
37 | Clc1ccc2[nH]c3c(c2c1)CCN(Cc1ccccc1)C3c1nccs1 (stereo not shown) [Compound 262] | > 1000
38 | CC(C)c1ccc(C2c3[nH]c4ccc(Cl)cc4c3CCN2C(=S)NC2CCCCC2)cc1 (stereo not shown) [Compound 335] | 40 to 200
39 | CCOC(=O)N1CCc2c([nH]c3ccc(Cl)cc23)C1c1cccc(F)c1 (stereo not shown) [Compound 51] | 8 to 40
40 | Oc1c(F)cccc1C1NCCc2c1[nH]c1ccc(Br)cc21 (stereo not shown) [Compound 380] | > 1000
41 | CCOC(=O)N1CCc2c([nH]c3ccc(Cl)cc23)C1c1cccc(Br)c1 (stereo not shown) [Compound 93] | 8 to 40
42 | O=C(OCCCl)N1CCc2c([nH]c3ccc(Cl)cc23)C1c1ccc([N+](=O)[O-])cc1 (stereo not shown) [Compound 89] | 8 to 40
43 | CCOC(=O)N1CCc2c([nH]c3ccc(Br)cc23)C1c1cccc(C(F)(F)F)c1 (stereo not shown) [Compound 32] | < 8
44 | COc1ccc(C2c3[nH]c4ccccc4c3CCN2C(=S)NC(C)C)cc1 (stereo not shown) [Compound 289] | > 1000
45 | O=C(Oc1ccc(Cl)cc1)N1CCc2c([nH]c3ccc(Cl)cc23)C1c1ccc2c(c1)OCO2 (stereo not shown) [Compound 349] | 8 to 40
46 | COC(=O)N1CCc2c([nH]c3ccc(Cl)cc23)C1c1ccc(F)c(F)c1 (stereo not shown) [Compound 134] | 40 to 200
47 | Fc1ccc(C2NCCc3c2[nH]c2ccc(Br)cc32)c(F)c1 (stereo not shown) [Compound 161] | 40 to 200
48 | COc1ccc(C2c3[nH]c4ccc(Cl)cc4c3CCN2c2cnccn2)cc1 (stereo not shown) [Compound 1] | 8 to 40

same assay, conditions: Homo sapiens, HeLa cells, hypoxic conditions (1% O2)

Row | SMILES | EC50 [nM]
49 | CCOC(=O)N1CCc2c([nH]c3ccc(Cl)cc23)C1c1ccc(OCCCN2CCCC2)cc1 (stereo not shown) [Compound 449] | 8 to 40
50 | O=C(Oc1ccc(Cl)cc1)N1CCc2c([nH]c3ccc(Cl)cc23)C1c1ccc(OCCCCCCN2CCCC2)cc1 (stereo not shown) [Compound 783] | < 8
51 | CCOC(=O)N1CCc2c([nH]c3ccc(Cl)cc23)C1c1ccc(OCCOCCOC)cc1 (stereo not shown) [Compound 404] | < 8
52 | O=C(Oc1ccc(Cl)cc1)N1CCc2c([nH]c3ccc(Cl)cc23)C1c1ccc(OCCCCCl)cc1 (stereo not shown) [Compound 660] | < 8
53 | CCOC(=O)N1CCc2c([nH]c3ccc(Cl)cc23)C1c1cccc(C(=O)N2CCN(CCOC)CC2)c1 (stereo not shown) [Compound 562] | > 1000
54 | CC(C)(C)CC1NCCc2c1[nH]c1ccc(Cl)cc21 (stereo not shown) [Compound 565] | > 1000
55 | COc1ccc(OC(=O)N2CCc3c([nH]c4ccc(Br)cc34)C2c2cnc(N(C)C)nc2)cc1 (stereo not shown) [Compound 431] | < 8
56 | CCOC(=O)N1CCc2c([nH]c3ccc(Cl)cc23)C1c1ccc(C(=O)N2CCN(C3CCCCC3)CC2)cc1 (stereo not shown) [Compound 481] | 40 to 200
57 | CCOC(=O)N1CCc2c([nH]c3ccc(Br)cc23)C1c1ccc(C(=O)NCCOC)cc1 (stereo not shown) [Compound 438] | < 8
58 | CCOC(=O)N1CCc2c([nH]c3ccc(Cl)cc23)C1c1ccc(C(=O)N2CCC(N3CCCC3)CC2)cc1 (stereo not shown) [Compound 527] | 200 to 1000
59 | O=C(Oc1ccc(F)cc1)N1CCc2c([nH]c3ccc(Cl)cc23)C1c1ccc(F)cc1 (stereo not shown) [Compound 452] | 8 to 40
60 | COCCOc1ccc(C2c3[nH]c4ccc(Cl)cc4c3CCN2C(=O)OCc2ccccc2)cc1 (stereo not shown) [Compound 419] | < 8
61 | C=CCOc1ccc(C2c3[nH]c4ccc(Cl)cc4c3CCN2C(=O)OC(C)C)cc1 (stereo not shown) [Compound 408] | < 8
62 | CCOC(=O)N1CCc2c([nH]c3ccc(Cl)cc23)C1c1cccc(C(=O)N2CCN(CC)CC2)c1 (stereo not shown) [Compound 525] | 200 to 1000
63 | CCOC(=O)N1CCc2c([nH]c3ccc(Cl)cc23)C1c1cccc(C(=O)N(C)C)c1 (stereo not shown) [Compound 520] | 200 to 1000
64 | CC(C)NCCCCCCOc1ccc(C2c3[nH]c4ccc(Cl)cc4c3CCN2C(=O)Oc2ccc(F)cc2)cc1 (stereo not shown) [Compound 774] | 8 to 40
65 | CCOC(=O)N1CCc2c([nH]c3ccc(Br)cc23)C1c1ccc(CN2CCCN(C)CC2)cc1 (stereo not shown) [Compound 541] | 200 to 1000
66 | CC(=O)N1CCN(CC(O)COc2ccc(C3c4[nH]c5ccc(Cl)cc5c4CCN3C(=O)Oc3ccc(F)cc3)cc2)CC1 (stereo not shown) [Compound 637] | < 8
67 | Cc1ccc(C2c3[nH]c4ccc(Br)cc4c3CCN2C(=O)Oc2ccc(F)cc2)cc1 (stereo not shown) [Compound 398] | < 8
68 | O=C(Oc1ccc(Cl)cc1)N1CCc2c([nH]c3ccc(Cl)cc23)C1c1ccc(OCCCCN2CCOCC2)cc1 (stereo not shown) [Compound 702] | 8 to 40
69 | CCOC(=O)N1CCc2c([nH]c3ccc(Cl)cc23)C1C(C)Cc1ccc(C(C)C)cc1 (stereo not shown) [Compound 523] | 200 to 1000
70 | O=C(Oc1ccc(Cl)cc1)N1CCc2c([nH]c3ccc(Cl)cc23)C1c1ccc(OCCCCCCNCCO)cc1 (stereo not shown) [Compound 782] | < 8
71 | O=C(Oc1ccc(F)cc1)N1CCc2c([nH]c3ccc(Cl)cc23)C1c1ccc(OCCCCN2CCCCC2)cc1 (stereo not shown) [Compound 739] | < 8
72 | CCOC(=O)N1CCc2c([nH]c3ccc(Br)cc23)C1c1ccc(C(=O)NC)cc1 (stereo not shown) [Compound 480] | 40 to 200
73 | COCCOCCOc1ccc(C2c3[nH]c4ccc(Cl)cc4c3CCN2C(=O)Oc2ccc(Cl)cc2)cc1 (stereo not shown) [Compound 675] | 8 to 40

same assay, conditions: Homo sapiens, HeLa cells, hypoxic conditions (1% O2, 5% CO2)

Row | SMILES | EC50 [nM]
74 | O=C(Oc1ccc(F)cc1)N1CCc2c([nH]c3ccc(Cl)cc23)C1c1ccc(OCCCn2ccnn2)cc1 (stereo not shown) [Compound 995] | < 8
75 | COCCN(CCOC)CC(O)COc1ccc(C2c3[nH]c4ccc(Cl)cc4c3CCN2C(=O)Oc2ccc(Cl)cc2)cc1 (stereo not shown) [Compound 918] | < 8
76 | O=C(Oc1ccc(F)cc1)N1CCc2c([nH]c3ccc(Cl)cc23)C1c1ccc(OCCCN2CCOCC2)cc1 (stereo not shown) [Compound 989] | < 8
77 | Cc1cnc(NCCOc2ccc(C3c4[nH]c5ccc(Cl)cc5c4CCN3C(=O)Oc3ccc(Cl)cc3)cc2)s1 (stereo not shown) [#842] | < 8
78 | NCC(O)COc1ccc(C2c3[nH]c4ccc(Cl)cc4c3CCN2C(=O)Oc2ccc(Cl)cc2)cc1 (stereo not shown) [Compound 846] | 40 to 200
79 | COc1ccc(OC(=O)N2CCc3c([nH]c4ccc(Cl)cc34)C2c2ccc(OCCCCl)cc2)cc1 (stereo not shown) [Compound 944] | 8 to 40
